Data taken from publication PMC4211885 (PLoS ONE, 2014).

Key:
[1] = test system: CFTR conductance (intracellular cAMP); experiment: cAMP detection by whole oocyte (CFTR) conductance in oocytes co-expressing CFTR and OA/TAMac; format: cell-based, Xenopus laevis; settings: for Increase in cAMP levels (CFTR conductance): OA and TA at 100 µM or 1000 µM
Excerpt: It is also unlikely that the effects of tyramine at high concentration result from an increase in cAMP. It is common that octopaminergic GPCRs can couple through the canonical Gαs/cAMP pathway so we used co-expression of the Cystic Fibrosis Trans-membrane Conductance Regulator (CFTR) as a means of testing for increases in cAMP (see methods for more detail) [60]–[63].
As a means of detecting rises in intracellular cAMP levels we tested oocytes co-expressing the CFTR channel and OA/TAMac. Heterologously expressed CFTR can be used as an extremely sensitive assay for intracellular cAMP in Xenopus oocytes. CFTR mediates a chloride-selective leak conductance that is activated by increases in intracellular cAMP [63]. Activity of CFTR can thus be used to indicate whether changes in cAMP correspond with ligand application [60]–[62]. Whole oocyte conductance was monitored using a step protocol and calculated from I/V plots. The command voltage was stepped from the holding potential to various levels (−10 mV to −55 mV in −5 mV increments) for 150 ms. The steady state current during each step was plotted against the command voltage and fit to a line using Clampfit 10 software (Fig. S7A). The slope of the line was taken as the conductance. To minimize the magnitude of the holding current between drug applications, oocytes expressing CFTR were typically held at −20 mV which is close to the typical chloride reversal potential. This was confirmed by the fact that the direct-current evoked by forskolin could appear inward or outward at −20 mV. Oocytes expressing either OA/TAMac alone or OA/TAMac and CFTR typically had resting membrane potentials between −20 mV and −30 mV (mean of −26±5 mV calculated from oocytes in Fig. S7) due to increased expression of endogenous chloride currents.
(A) The measurement of whole oocyte conductance was done by plotting steady state current against the command voltage recorded during a step protocol. It is defined as the slope (I/V) of the linear least squares regression line. In the example shown tyramine (TA) causes no apparent change in whole oocyte conductance. Octopamine (OA) causes a small change compared to the adenylate cyclase activator forskolin (FSK). […] These cumulative data are from 20 OA/TAMac and CFTR-injected oocytes and 6 OA/TAMac -only injected oocytes. Conductance was measured as shown in A. Not all compounds were tested in all oocytes. Each response is treated as an independent sample. Concentrations of OA and TA were at 100 µM or 1000 µM, FSK was at 50 µM. Some points obtained at 3 minutes were grouped with the 4 minute responses. (C) The change in conductance (Δg) occurring within oocytes as determined by the difference between baseline and the indicated time points post-application of compound. […]

Uninjected oocytes = experiment: Direct-current response of uninjected oocytes (control); format: cell-based, Xenopus laevis; settings: n = 5
Method: We first tested receptor-injected oocytes for the occurrence of a response to biogenic amines. Applications of tyramine, octopamine, or dopamine produced an inward ID, typically ranging between 50 nA and 500 nA, under a constant holding potential of −60 mV. […] The amplitude of tyramine evoked ID at concentrations below 10 µM was greater than octopamine or dopamine within the same oocyte (Figs. 2A and S2). […] Instead it would rise and then begin to decline prior to the removal of agonist (dotted line). However, at high concentrations, above 100 µM, ID appeared to approach a stable plateau (Fig. 2B).
Recordings were performed 1–3 days post-injection at room temperature (20–22°C). Currents were recorded under two-electrode voltage clamp using an Axoclamp 900a amplifier (Molecular Devices LLC, CA USA). A digidata 1440a analog to digital converter was used in conjunction with pCLAMP 10 software (Molecular Devices) for data acquisition and to generate voltage commands. For each step protocol or chemical application data were typically sampled at 5 KHz and filtered digitally at 1 KHz. For the duration of each experiment the current was also continuously sampled at 1 kHz using a separate minidigi 1A digitizer (Molecular Devices). Glass microelectrodes were pulled from filamented 1.2 mm thin wall borosilicate glass (World Precision Instruments, Sarasota, FL) using a Sutter Instruments P-97 puller. They were filled with 3 M KCl and had resistances of 0.8–2.0 MΩ. A silver chloride pellet immersed in 3 M KCl and connected to the bath via a 3% agar bridge made with 3 M KCl was used as the reference electrode.
Supplementary file pone.0111314.s001.tif: Figure S1 Direct-current (ID) responses are specifically evoked by agonists in oocytes injected with OA/TAMac only. […] The trace is representative of an experimental set of 5 oocytes. Additional uninjected oocytes were tested with various experimental sets throughout the course of this study. (B) A typical preliminary test of agonist sensitivity. Injection of OA/TAMac cRNA alone is sufficient to confer sensitivity to OA. […] Applications are approximately 30 seconds in the upper trace. (C) The response of clonidine (CN), synephrine (SN), and OA within a single OA/TAMac injected oocyte. […] All drugs are applied for 30 seconds each as indicated by black rectangles. Agonist evoked currents are measured within oocytes relative to the octopamine response at 50 µM. The comparison is made to OA because the amplitude of the tyramine response becomes small at concentrations above 10 µM. This is due to a mechanistically undefined process not seen with any other agonist we tested. Note that TA is the first compound applied to a naïve oocyte in this example. […] (TIF) Click here for additional data file.

Structure (SMILES) | Increase in cAMP levels (CFTR conductance) [1] | Response of uninjected oocytes (Uninjected oocytes) | Response of uninjected oocytes (Uninjected oocytes; listed as OA) | Mean change in conductance (Δg) within oocytes ([1]; compiled from 12 oocytes, s.d. = 1.72 µS, high conductance outlier excluded) | Response of uninjected oocytes (Uninjected oocytes; listed as TA)
NCC(O)c1ccc(O)cc1 (racemic) [octopamine, (+/−)-octopamine] | neither octopamine nor tyramine produced significant increases | no response | do not respond | – | –
NCCc1ccc(O)cc1 [tyramine] | neither octopamine nor tyramine produced significant increases | no response | – | 0.30 µS | do not respond
